Assay results reported in ChEMBL document CHEMBL4823275, “Structure-based molecular hybridization design of Keap1-Nrf2 inhibitors as novel protective agents of acute lung injury” (Eur J Med Chem, 2021).
Calls of active or inactive are those of the source. No cut-off for these calls is given here.

What was measured:
[1] = Cytotoxicity against mouse peritoneal macrophages assessed as reduction in cell viability measured after 24 hrs by CCK8 assay; type: cell-based, Peritoneal macrophage
Keap1/Nrf2 = Keap1/Nrf2 (Homo sapiens, UniProt Q14145); assay: Inhibition of Keap1-Nrf2 (unknown origin) interaction measured after 60 mins by Fluorescence polarization assay; type: protein assay
[2] = biological target: T1, Kelch-like ECH-associated protein 1/Nuclear factor erythroid 2-related factor 2 (Mus musculus) (UniProt Q60795+Q9Z2X8); assay: Inhibition of Keap1-Nrf2 interaction in mouse peritoneal macrophages assessed as upregulation of NQO1 protein expression at 10 uM by Western blot analysis; type: tissue-based; settings: Peritoneal macrophage, time 1-6 hrs, TDE = time-dependent effect
Peritoneal macrophage [3] = assay: Antiinflammatory activity against mouse peritoneal macrophages assessed as reduction in LPS-induced TNFalpha production at 10 uM measured after 24 hrs by ELISA; type: functional, cell-based
[4] = biological target: T1, Kelch-like ECH-associated protein 1/Nuclear factor erythroid 2-related factor 2 (Mus musculus); assay: Inhibition of Keap1-Nrf2 interaction in mouse peritoneal macrophages assessed as increase in nuclear translocation of Nrf2 by measuring decrease in cytosolic Nrf2 level at 10 uM measured after 3 to 6 hrs by Western blot analysis; type: subcellular; settings: Peritoneal macrophage, Cytosol, time 3-6 hrs
Peritoneal macrophage [5] = assay: Antiinflammatory activity against mouse peritoneal macrophages assessed as inhibition of LPS-stimulated ROS production at 10 uM incubated for 6 hrs by DCFH-DA staining based fluorescence analysis; type: functional, cell-based
[6] = biological target: T1, Kelch-like ECH-associated protein 1/Nuclear factor erythroid 2-related factor 2 (Mus musculus); assay: Inhibition of Keap1-Nrf2 interaction in mouse peritoneal macrophages assessed as upregulation of HO-1 protein expression at 10 uM by Western blot analysis; type: tissue-based; settings: Peritoneal macrophage, time 1-6 hrs, TDE = time-dependent effect
[7] = biological target: T1, Kelch-like ECH-associated protein 1/Nuclear factor erythroid 2-related factor 2 (Mus musculus); assay: Inhibition of Keap1-Nrf2 interaction in mouse peritoneal macrophages assessed as increase in nuclear translocation of Nrf2 by measuring increase in nuclear Nrf2 level at 10 uM measured after 3 to 6 hrs by Western blot analysis; type: subcellular; settings: Peritoneal macrophage, Nucleus, time 3-6 hrs
Peritoneal macrophage [8] = assay: Antiinflammatory activity against mouse peritoneal macrophages assessed as inhibition of LPS-induced NO production at 10 uM measured after 24 hrs by Griess assay; type: functional, cell-based
Mus musculus [9] = assay: Anti-inflammatory activity against LPS-induced acute lung injury C57BL/6 mouse model assessed as reduction in LPS-induced TNF-alpha mRNA expression in lungs at 5 to 20 mg/kg, ip treated 0.5 hrs before LPS stimulation and measured after 6 hrs by RT-PCR analysis; type: functional, organism-based; settings: dose 5-20 mg/kg, time 6.5 hrs
Mus musculus [10] = assay: (§1) In vivo inhibition of Keap1-Nrf2 interaction in LPS-induced acute lung injury C57BL/6 mouse model assessed as increase in Nrf2 nuclear translocation in lungs by measuring decrease in cytosolic Nrf2 level treated intraperitoneally at 0.5 hrs before LPS stimulation and measured after 6 hrs by western blot analysis; type: functional, organism-based; settings: dose 5-20 mg/kg, time 6.5 hrs
Mus musculus [11] = assay: Anti-inflammatory activity against LPS-induced acute lung injury C57BL/6 mouse model assessed as reduction in LPS-induced IL-6 mRNA expression in lungs at 5 to 20 mg/kg, ip treated 0.5 hrs before LPS stimulation and measured after 6 hrs by RT-PCR analysis; type: functional, organism-based; settings: dose 5-20 mg/kg, time 6.5 hrs
Mus musculus [12] = assay: Anti-inflammatory activity against LPS-induced acute lung injury C57BL/6 mouse model assessed as reduction in LPS-induced IL-1 beta mRNA expression in lungs at 5 to 20 mg/kg, ip treated 0.5 hrs before LPS stimulation and measured after 6 hrs by RT-PCR analysis; type: functional, organism-based; settings: dose 5-20 mg/kg, time 6.5 hrs
Mus musculus [13] = assay: (§2) Antiinflammatory activity against LPS-induced acute lung injury C57BL/6 mouse model assessed as intact alveolar structure with reduced inflammatory cells infiltration in lungs at 5 to 20 mg/kg, ip treated 0.5 hrs before LPS stimulation and measured after 6 hrs by hematoxylin and eosin staining based microscopic analysis; type: functional, organism-based; settings: dose 5-20 mg/kg, time 6.5 hrs
Mus musculus [14] = assay: as §1, with “increase” for “decrease”, “nuclear” for “cytosolic”; type: functional, organism-based; settings: dose 5-20 mg/kg, time 6.5 hrs
Mus musculus [15] = assay: as §2, with “mild” for “intact”, “thickening” for “structure”, “less bleeding points/congestion” for “reduced inflammatory cells infiltration”; type: functional, organism-based; settings: dose 5-20 mg/kg, time 6.5 hrs
Mus musculus [16] = assay: Anti-inflammatory activity against LPS-induced acute lung injury C57BL/6 mouse model assessed as reduction in LPS-induced TNF-alpha secretion in BALF at 5 to 20 mg/kg, ip treated 0.5 hrs before LPS stimulation and measured after 6 hrs by ELISA; type: functional, organism-based; settings: dose 5-20 mg/kg, time 6.5 hrs
Mus musculus [17] = assay: Anti-inflammatory activity against LPS-induced acute lung injury C57BL/6 mouse model assessed as reduction in LPS-induced IL-1 beta secretion in BALF at 5 to 20 mg/kg, ip treated 0.5 hrs before LPS stimulation and measured after 6 hrs by ELISA; type: functional, organism-based; settings: dose 5-20 mg/kg, time 6.5 hrs

T1 sequence (Q60795 whole entry, looked up): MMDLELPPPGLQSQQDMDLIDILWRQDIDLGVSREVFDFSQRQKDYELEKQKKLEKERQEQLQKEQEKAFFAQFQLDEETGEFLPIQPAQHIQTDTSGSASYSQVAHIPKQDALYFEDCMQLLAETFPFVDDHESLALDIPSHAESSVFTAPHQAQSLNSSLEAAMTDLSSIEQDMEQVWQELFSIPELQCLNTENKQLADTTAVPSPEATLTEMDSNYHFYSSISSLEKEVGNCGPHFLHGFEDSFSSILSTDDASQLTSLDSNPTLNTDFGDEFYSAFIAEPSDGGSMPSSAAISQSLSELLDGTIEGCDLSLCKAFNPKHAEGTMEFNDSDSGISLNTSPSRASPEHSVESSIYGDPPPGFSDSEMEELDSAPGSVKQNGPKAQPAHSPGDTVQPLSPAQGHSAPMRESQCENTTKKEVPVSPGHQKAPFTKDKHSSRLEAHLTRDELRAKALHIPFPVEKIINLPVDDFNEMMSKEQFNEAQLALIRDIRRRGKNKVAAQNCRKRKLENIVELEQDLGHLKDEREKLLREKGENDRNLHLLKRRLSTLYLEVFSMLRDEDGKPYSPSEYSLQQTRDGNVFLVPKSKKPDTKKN
T1 sequence (Q9Z2X8 whole entry, looked up): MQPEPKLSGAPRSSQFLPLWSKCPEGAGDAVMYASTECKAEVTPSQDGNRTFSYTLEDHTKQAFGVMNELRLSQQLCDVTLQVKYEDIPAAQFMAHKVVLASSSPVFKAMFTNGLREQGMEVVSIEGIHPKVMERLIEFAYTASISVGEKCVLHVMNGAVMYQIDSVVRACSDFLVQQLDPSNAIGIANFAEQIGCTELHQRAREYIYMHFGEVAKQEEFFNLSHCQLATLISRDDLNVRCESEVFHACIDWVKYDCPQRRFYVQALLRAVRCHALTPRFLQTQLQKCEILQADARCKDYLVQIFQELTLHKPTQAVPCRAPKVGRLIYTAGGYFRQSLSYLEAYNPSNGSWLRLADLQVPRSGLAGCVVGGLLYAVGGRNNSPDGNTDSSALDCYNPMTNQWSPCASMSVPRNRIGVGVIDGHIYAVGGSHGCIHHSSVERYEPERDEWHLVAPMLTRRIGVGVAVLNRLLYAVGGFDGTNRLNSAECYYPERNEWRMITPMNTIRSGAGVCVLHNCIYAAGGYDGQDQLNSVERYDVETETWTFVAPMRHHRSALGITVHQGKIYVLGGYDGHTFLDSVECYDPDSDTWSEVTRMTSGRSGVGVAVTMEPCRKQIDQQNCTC
Keap1/Nrf2, sequence (Q16236 whole entry): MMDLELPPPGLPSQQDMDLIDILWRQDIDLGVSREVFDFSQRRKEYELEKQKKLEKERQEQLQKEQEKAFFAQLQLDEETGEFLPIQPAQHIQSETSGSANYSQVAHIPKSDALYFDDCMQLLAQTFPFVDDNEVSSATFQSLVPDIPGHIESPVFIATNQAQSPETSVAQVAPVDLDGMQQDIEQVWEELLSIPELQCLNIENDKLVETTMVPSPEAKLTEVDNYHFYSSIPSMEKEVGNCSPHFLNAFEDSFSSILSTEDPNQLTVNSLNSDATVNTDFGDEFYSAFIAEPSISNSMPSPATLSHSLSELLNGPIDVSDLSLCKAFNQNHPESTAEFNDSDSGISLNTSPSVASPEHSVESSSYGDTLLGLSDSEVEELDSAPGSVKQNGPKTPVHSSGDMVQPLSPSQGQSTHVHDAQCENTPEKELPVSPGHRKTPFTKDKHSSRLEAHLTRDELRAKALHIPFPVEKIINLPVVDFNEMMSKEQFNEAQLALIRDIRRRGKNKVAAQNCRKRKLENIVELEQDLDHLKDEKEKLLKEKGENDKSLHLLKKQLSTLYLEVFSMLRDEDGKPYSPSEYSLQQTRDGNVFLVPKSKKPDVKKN
Keap1/Nrf2, sequence (Q14145 whole entry): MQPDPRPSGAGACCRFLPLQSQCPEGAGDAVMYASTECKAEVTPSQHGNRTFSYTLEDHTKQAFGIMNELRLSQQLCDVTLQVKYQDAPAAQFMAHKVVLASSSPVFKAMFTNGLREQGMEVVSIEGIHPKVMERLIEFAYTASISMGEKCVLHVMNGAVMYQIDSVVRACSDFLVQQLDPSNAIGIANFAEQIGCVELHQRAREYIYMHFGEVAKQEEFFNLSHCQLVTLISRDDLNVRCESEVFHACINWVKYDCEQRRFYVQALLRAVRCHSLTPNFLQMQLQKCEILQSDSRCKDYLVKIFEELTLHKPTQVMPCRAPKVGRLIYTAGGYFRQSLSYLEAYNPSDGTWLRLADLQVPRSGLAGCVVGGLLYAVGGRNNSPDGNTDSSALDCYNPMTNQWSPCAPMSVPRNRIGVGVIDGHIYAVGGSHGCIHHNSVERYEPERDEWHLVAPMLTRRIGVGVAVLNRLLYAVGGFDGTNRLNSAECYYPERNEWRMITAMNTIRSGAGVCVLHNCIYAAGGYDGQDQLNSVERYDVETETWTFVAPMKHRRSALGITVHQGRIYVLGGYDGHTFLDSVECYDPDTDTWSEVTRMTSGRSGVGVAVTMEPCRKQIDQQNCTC

SMILES: COc1ccc(S(=O)(=O)N(CC(N)=O)c2ccc(N(CC(N)=O)S(=O)(=O)c3ccc(SCCCCN=C=S)cc3)c3ccccc23)cc1
- CC50 at 24 h [1]: > 10 µM
- Kd (Keap1/Nrf2): > 10000 nM

SMILES: COc1ccc(S(=O)(=O)N(CC(N)=O)c2ccc(N(CC(N)=O)S(=O)(=O)c3ccc([S+]([O-])CCCCN=C=S)cc3)c3ccccc23)cc1 (centres undefined)
- CC50 at 24 h [1]: > 10 µM
- Kd (Keap1/Nrf2): 1270 nM

SMILES: COc1ccc(S(=O)(=O)N(CC(N)=O)c2ccc(N(CC(N)=O)S(=O)(=O)c3ccc(S(=O)(=O)CCCCCN=C=S)cc3)c3ccccc23)cc1
- CC50 at 24 h [1]: > 10 µM
- Kd (Keap1/Nrf2): > 10000 nM

SMILES: COc1ccc(S(=O)(=O)N(CC(N)=O)c2ccc(N(CC(N)=O)S(=O)(=O)c3ccc([S+]([O-])CCN=C=S)cc3)c3ccccc23)cc1 (centres undefined)
- CC50 at 24 h [1]: > 10 µM
- Kd (Keap1/Nrf2): 1490 nM

SMILES: COc1ccc(S(=O)(=O)N(CC(N)=O)c2ccc(N(CC(N)=O)S(=O)(=O)c3ccc(S(=O)(=O)CCOCCOCCN=C=S)cc3)c3ccccc23)cc1
- CC50 at 24 h [1]: > 10 µM
- Kd (Keap1/Nrf2): 1220 nM

SMILES: COc1ccc(S(=O)(=O)N(CC(N)=O)c2ccc(N(CC(N)=O)S(=O)(=O)c3ccc(S(=O)(=O)CCOCCOCCOCCN=C=S)cc3)c3ccccc23)cc1
- CC50 at 24 h [1]: > 10 µM
- Kd (Keap1/Nrf2): > 10000 nM

SMILES: C[S+]([O-])CCCCN=C=S (centres undefined) [SULFORAPHANE]
- CC50 at 24 h [1]: > 10 µM
- inhibition [2]: Tde
- Activity (Peritoneal macrophage [3]): Active
- inhibition [4]: Active
- Activity (Peritoneal macrophage [5]): Active
- inhibition [6]: Tde
- inhibition [7]: Active
- Activity (Peritoneal macrophage [8]): Active

SMILES: COc1ccc(S(=O)(=O)N(CC(N)=O)c2ccc(N(CC(N)=O)S(=O)(=O)c3ccc(SCCN=C=S)cc3)c3ccccc23)cc1
- CC50 at 24 h [1]: > 10 µM
- Kd (Keap1/Nrf2): 3500 nM

SMILES: COc1ccc(S(=O)(=O)N(CC(N)=O)c2ccc(N(CC(N)=O)S(=O)(=O)c3ccc([S+]([O-])CCCCCN=C=S)cc3)c3ccccc23)cc1 (centres undefined)
- CC50 at 24 h [1]: > 10 µM
- Kd (Keap1/Nrf2): 1830 nM

SMILES: COc1ccc(S(=O)(=O)N(CC(N)=O)c2ccc(N(CC(N)=O)S(=O)(=O)c3ccc(N=C=S)cc3)c3ccccc23)cc1
- CC50 at 24 h [1]: > 10 µM
- Activity (Peritoneal macrophage [3]): Active
- Kd (Keap1/Nrf2): 106 nM
- Activity (Peritoneal macrophage [5]): Active
- Activity (Peritoneal macrophage [8]): Active

SMILES: COc1ccc(S(=O)(=O)N(CC(N)=O)c2ccc(N(CC(N)=O)S(=O)(=O)c3ccc(S(=O)(=O)CCN=C=S)cc3)c3ccccc23)cc1
- CC50 at 24 h [1]: > 10 µM
- Activity (Peritoneal macrophage [3]): Active
- Kd (Keap1/Nrf2): 658 nM
- Activity (Peritoneal macrophage [5]): Active
- Activity (Peritoneal macrophage [8]): Active

SMILES: COc1ccc(S(=O)(=O)N(CC(N)=O)c2ccc(N(CC(N)=O)S(=O)(=O)c3ccc(SCCCCCN=C=S)cc3)c3ccccc23)cc1
- CC50 at 24 h [1]: > 10 µM
- Kd (Keap1/Nrf2): > 10000 nM

SMILES: COc1ccc(S(=O)(=O)N(CC(N)=O)c2ccc(N(CC(N)=O)S(=O)(=O)c3ccc(SCCCN=C=S)cc3)c3ccccc23)cc1
- CC50 at 24 h [1]: > 10 µM
- Kd (Keap1/Nrf2): > 10000 nM

SMILES: COc1ccc(S(=O)(=O)N(CC(N)=O)c2ccc(N(CC(N)=O)S(=O)(=O)c3ccc(SCCOCCOCCOCCN=C=S)cc3)c3ccccc23)cc1
- CC50 at 24 h [1]: > 10 µM
- Kd (Keap1/Nrf2): > 10000 nM

SMILES: COc1ccc(S(=O)(=O)N(CC(N)=O)c2ccc(N(CC(N)=O)S(=O)(=O)c3ccc(S(=O)(=O)CCOCCN=C=S)cc3)c3ccccc23)cc1
- CC50 at 24 h [1]: > 10 µM
- Kd (Keap1/Nrf2): 2300 nM

SMILES: COc1ccc(S(=O)(=O)N(CC(N)=O)c2ccc(N(CC(N)=O)S(=O)(=O)c3ccc(S(=O)(=O)CCCN=C=S)cc3)c3ccccc23)cc1
- CC50 at 24 h [1]: > 10 µM
- Kd (Keap1/Nrf2): > 10000 nM

SMILES: COc1ccc(S(=O)(=O)N(CC(N)=O)c2ccc(N(CC(N)=O)S(=O)(=O)c3ccc(SCCOCCOCCN=C=S)cc3)c3ccccc23)cc1
- CC50 at 24 h [1]: > 10 µM
- Kd (Keap1/Nrf2): > 10000 nM

SMILES: COc1ccc(S(=O)(=O)N(CC(N)=O)c2ccc(N(CC(N)=O)S(=O)(=O)c3ccc([S+]([O-])CCOCCN=C=S)cc3)c3ccccc23)cc1 (centres undefined)
- CC50 at 24 h [1]: > 10 µM
- Kd (Keap1/Nrf2): 3080 nM

SMILES: COc1ccc(S(=O)(=O)N(CC(N)=O)c2ccc(N(CC(N)=O)S(=O)(=O)c3ccc([S+]([O-])CCOCCOCCN=C=S)cc3)c3ccccc23)cc1 (centres undefined)
- CC50 at 24 h [1]: > 10 µM
- Kd (Keap1/Nrf2): 1090 nM

SMILES: COc1ccc(S(=O)(=O)N(CC(N)=O)c2ccc(N(CC(N)=O)S(=O)(=O)c3ccc(SCCOCCN=C=S)cc3)c3ccccc23)cc1
- CC50 at 24 h [1]: > 10 µM
- Kd (Keap1/Nrf2): 8510 nM

SMILES: COc1ccc(S(=O)(=O)N(CC(N)=O)c2ccc(N(CC(N)=O)S(=O)(=O)c3ccc([S+]([O-])CCOCCOCCOCCN=C=S)cc3)c3ccccc23)cc1 (centres undefined)
- CC50 at 24 h [1]: > 10 µM
- Kd (Keap1/Nrf2): > 10000 nM

SMILES: COc1ccc(S(=O)(=O)N(CC(N)=O)c2ccc(N(CC(N)=O)S(=O)(=O)c3ccc([S+]([O-])CCCN=C=S)cc3)c3ccccc23)cc1 (centres undefined)
- Activity (Mus musculus [9]): Active
- inhibition (Mus musculus [10]): Dose-Dependent Effect
- Activity (Mus musculus [11]): Active
- CC50 at 24 h [1]: > 10 µM
- inhibition [2]: Tde
- Activity (Peritoneal macrophage [3]): Active
- inhibition [4]: Active
- Kd (Keap1/Nrf2): 455 nM
- Activity (Peritoneal macrophage [5]): Active
- Activity (Mus musculus [12]): Active
- Activity (Mus musculus [13]): Active
- inhibition [6]: Tde
- inhibition (Mus musculus [14]): Dose-Dependent Effect
- inhibition [7]: Active
- Activity (Peritoneal macrophage [8]): Active
- Activity (Mus musculus [15]): Active
- Activity (Mus musculus [16]): Active
- Activity (Mus musculus [17]): Active

SMILES: COc1ccc(S(=O)(=O)N(CC(N)=O)c2ccc(N(CC(N)=O)S(=O)(=O)c3ccc(S(=O)(=O)CCCCN=C=S)cc3)c3ccccc23)cc1
- CC50 at 24 h [1]: > 10 µM
- Kd (Keap1/Nrf2): > 10000 nM
